Like-named read-outs stand apart in the source and are kept apart here.
Target: T1, rat P2X7R (Rattus norvegicus, UniProt Q64663)
T1 construct: gene P2rx7; rP2X7R (NM_019256) stably expressed in 1321N1 cells
T1 sequence (Q64663 1-595): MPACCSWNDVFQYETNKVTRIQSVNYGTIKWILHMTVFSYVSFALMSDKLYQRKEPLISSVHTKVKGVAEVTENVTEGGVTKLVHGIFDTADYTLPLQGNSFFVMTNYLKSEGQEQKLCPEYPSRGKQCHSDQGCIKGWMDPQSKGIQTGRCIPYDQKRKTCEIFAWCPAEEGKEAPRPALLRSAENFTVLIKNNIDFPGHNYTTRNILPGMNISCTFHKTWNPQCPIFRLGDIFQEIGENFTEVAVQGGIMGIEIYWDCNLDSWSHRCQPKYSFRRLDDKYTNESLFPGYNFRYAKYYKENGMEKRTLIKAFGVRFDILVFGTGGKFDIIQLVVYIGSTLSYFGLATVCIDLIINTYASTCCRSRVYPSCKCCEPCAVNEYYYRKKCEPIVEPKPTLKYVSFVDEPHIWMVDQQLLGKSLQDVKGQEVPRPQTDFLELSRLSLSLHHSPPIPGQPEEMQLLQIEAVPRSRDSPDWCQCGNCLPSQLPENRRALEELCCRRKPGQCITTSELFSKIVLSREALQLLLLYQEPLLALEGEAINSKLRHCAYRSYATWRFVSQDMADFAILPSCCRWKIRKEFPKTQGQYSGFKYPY
Test: single-cell Fura-2 Ca2+ imaging, BzATP-stimulated rP2X7R-1321N1 cells
Assay type: cell-based

| SMILES | IC50 (read-out: IC50) [nM] | IC50 [nM] |
| --- | --- | --- |
| COCCOC(=O)C1=C(C)NC(C)=C(C(=O)OC/C=C/c2ccccc2)C1c1cccc([N+](=O)[O-])c1 (racemic) [CNP, 2-Methoxyethyl(E)-3-phenyl-2-propen-1-yl(±)-1,4-dihydro-2,6-dimethyl-4-(3-nitrophenyl)pyridine-3,5-dicarboxylate] | 130 | – |
| CCc1oc2ccccc2c1C(=O)c1cc(Br)c(O)c(Br)c1 [BBR, benzbromarone] | – | 250 |
| COc1cc(C(=O)NS(=O)(=O)c2ccccc2C)ccc1Cc1cn(C)c2ccc(NC(=O)OC3CCCC3)cc12 [ZFK, zafirlukast] | 220 | – |
